Test results taken from PMC10822852, “Structural and biochemical insights into the mechanism of the Gabija bacterial immunity system” (Nature Communications, 2024).

B1: GajA (enzyme, Bacillus cereus VD045, UniProt J8H9C1 1-578, looked up)
chain: MKFSNITIKNFRNFEKVNINLDNKNVIFGMNDIGKTNFLYALRFLLDKEIRKFGFNKSDYHKHDTSKKIEIILTLDLSNYEKDEDTKKLISVVKGARTSANADVFYIALESKYDDKELYGNIILKWGSELDNLIDIPGRGNINALDNVFKVIYINPLVDLDKLFAQNKKYIFEESQGNESDEGILNNIKSLTDQVNQQIGEMTIIKGFQQEITSEYRSLKKEEVSIELKSEMAIKGFFSDIIPYIKKDGDSNYYPTSGDGRRKMLSYSIYNYLAKKKYEDKIVIYLIEEPEISLHRSMQIALSKQLFEQSTYKYFFLSTHSPELLYEMDNTRLIRVHSTEKVVCSSHMYNVEEAYGSVKKKLNKALSSALFAERVLLIEGPSEKILFEKVLDEVEPEYELNGGFLLEVGGTYFNHYVCTLNDLGITHIIKTDNDLKSKKGKKGVYELLGLNRCLNLLGRENLDEITIDIPEDIKGKKKKERLNERKKEIFKQYKNEVGEFLGERIYLSEIDLENDLYSAIGESMKRIFENEDPVHYLQKSKLFNMVELVNNLSTKDCFDVFEHEKFACLKELVGSDRG
notes: OLD family nuclease with ATPase domain (1-351) and Toprim domain (352-578); The methods describe only the co-expression and purification of the complex; Cloned into PET-52b; also called GajA1; GajA2; source: E. coli BL21 (DE3), purified (Strep-tactin Sepharose, Superdex 200); co-expressed with GajB for the Gabija complex

How the values were obtained:
[1] = target: T1, Gabija complex (GajA and GajB) (Bacillus cereus, UniProt J8H9C1+J8HQ06); experiment: inhibition of DNA cleavage, agarose gel; type: biochemical; details: 1 mM MgCl2, pH 9, 37 °C, 5 min
T1 construct: full-length GajA (1-578, Strep-tag II) co-expressed with full-length GajB (1-493, 6xHis) in E. coli BL21(DE3); hetero-octamer 4:4
T1 sequence (J8HQ06 1-493, one chain of several): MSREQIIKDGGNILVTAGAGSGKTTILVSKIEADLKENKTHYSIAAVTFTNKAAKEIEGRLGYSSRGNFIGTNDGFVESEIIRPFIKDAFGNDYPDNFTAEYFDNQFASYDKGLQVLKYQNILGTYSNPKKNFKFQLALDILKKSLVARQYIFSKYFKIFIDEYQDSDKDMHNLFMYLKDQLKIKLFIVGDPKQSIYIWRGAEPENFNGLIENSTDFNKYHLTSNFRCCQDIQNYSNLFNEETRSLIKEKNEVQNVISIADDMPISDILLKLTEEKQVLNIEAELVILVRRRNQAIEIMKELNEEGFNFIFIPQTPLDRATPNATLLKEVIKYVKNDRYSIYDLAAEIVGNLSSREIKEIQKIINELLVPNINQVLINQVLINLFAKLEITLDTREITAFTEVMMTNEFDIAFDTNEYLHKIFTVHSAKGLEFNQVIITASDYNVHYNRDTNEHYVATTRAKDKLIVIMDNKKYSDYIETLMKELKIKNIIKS

[2] = target: the molecule itself; experiment: SEC-MALS; Superdex 200 10/300 Increase, samples injected at 1 mg/ml in Buffer B (10 mM Tris-HCl pH 7.5, 300 mM NaCl, 2 mM DTT), 0.5 ml/min; GajA, GajB and the co-purified Gabija complex

| Molecule | inhibition of DNA cleavage, agarose gel ([1]; supercoiled pUC19-15 plasmid) | further results |
| --- | --- | --- |
| Nc1ncnc2c1ncn2[C@@H]1O[C@H](COP(=O)(O)OP(=O)(O)O)[C@@H](O)[C@H]1O [ADP] | significantly inhibited by different NTP, dNTP, ADP, but not AMP | – |
| Nc1ncnc2c1ncn2[C@@H]1O[C@H](COP(=O)(O)OP(=O)(O)NP(=O)(O)O)[C@@H](O)[C@H]1O [AMP-PNP] | – | inhibition of DNA cleavage, agarose gel ([1]; non-hydrolysable ATP analogue, DNA substrate not given): cleavage activity of the Gabija complex is also inhibited by AMP-PNP |
| Nc1nc2c(ncn2[C@@H]2O[C@H](COP(=O)(O)OP(=O)(O)OP(=O)(O)O)[C@@H](O)[C@H]2O)c(=O)[nH]1 [GTP] | significantly inhibited with the increased concentration of ATP and GTP | – |
| B1 | – | stoichiometry N [2]: 4 |
